Some test systems named below: Yersinia enterocolitica; Escherichia coli; Salmonella sp.; Bacillus subtilis 168 HT; Streptococcus uberis; Leuconostoc lactis.
Common to all, as to experiment: ≥ marks a high value that may be exact or a test limit, other limits are often not marked, values filed in µg/mL are converted to µM
Assay [1] concerns Candida albicans ATCC 10231.
In assay [2] the test system is Pseudomonas aeruginosa ATCC 9027.
The subject of assay [3] is Staphylococcus aureus ATCC 25923.
The test system of assay [4] is Enterococcus faecalis PCM 2673.
For assay [5], the system named is Escherichia coli ATCC 25922.
Assay [6] relates to Salmonella enterica subsp. enterica serovar Enteritidis.
Assay [7] has as its system Staphylococcus aureus ATCC 29213.
Assay [8] relates to Staphylococcus aureus ATCC 43300.
In assay [9] the test system is Pseudomonas aeruginosa ATCC 27853.
Assay [10] deals with Bacillus subtilis ATCC 6051.
Assay [11] has as its system Escherichia coli NEB5alpha.
For assay [12], the system named is Batrachochytrium dendrobatidis.
Assay [13] relates to Staphylococcus aureus ST88.
Assay [14] concerns Escherichia coli K12 MG1655.
The test system of assay [15] is Staphylococcus haemolyticus 527.
The test system of assay [16] is Micrococcus luteus ATCC 9341.
Assay [17] deals with Staphylococcus epidermidis ATCC 14990.

In brackets after ≈: the same amount, converted by molar mass. Some results are limits rather than exact numbers.

This is an account of results in DBAASP.

Broadly, the MIC is the smallest concentration in the dilution series that meets the test's criterion for growth inhibition. A low value points to greater potency.

On to `CC[C@H](C)[C@H](NC(=O)[C@H](CC(=O)O)NC(=O)[C@H](Cc1ccccc1)NC(=O)[C@H](CC(C)C)NC(=O)CN)C(=O)N[C@H](C(=O)N[C@@H](CCCCN)C(=O)N[C@@H](CCCCN)C(=O)N[C@@H](C)C(=O)N[C@@H](C)C(=O)N[C@@H](CCC(=O)O)C(=O)N[C@@H](CO)C(=O)N[C@@H](Cc1ccccc1)C(N)=O)[C@@H](C)CC` [GLFDIIKKAAESF], for which the minimal inhibitory concentration (MIC) is 356 µM (≈ 512 µg/mL) in assay [1]; over 356 µM in assay [2]; over 356 µM in assay [3]; at least 89 µM in [4]; 356 µM (≈ 512 µg/mL) in assay [5].

Regarding `CC[C@H](C)[C@H](NC(=O)[C@H](CCC(N)=O)NC(=O)[C@@H](N)CCCN=C(N)N)C(=O)N[C@@H](CCCN=C(N)N)C(=O)N[C@@H](Cc1c[nH]c2ccccc12)C(=O)N[C@@H](CCC(N)=O)C(=O)N[C@@H](CCCN=C(N)N)C(N)=O` [RQIRWQR], the MIC in [6] is at least 50 µM; in assay [7] it was over 50 µM; in [8], over 50 µM; in the assay on Yersinia enterocolitica, at least 50 µM; in the assay on Escherichia coli, over 50 µM; with Salmonella sp. it was at least 50 µM. Further, the minimum inhibitory concentration (MIC) in assay [9] and in assay [5] was over 50 µM in each case.

Regarding `CC[C@H](C)[C@H](NC(=O)[C@H](CC(N)=O)NC(=O)[C@H](CCC(N)=O)NC(=O)[C@@H](N)Cc1cnc[nH]1)C(=O)NCC(=O)N[C@@H](CO)C(=O)N[C@@H](CO)C(=O)N[C@@H](CO)C(=O)N[C@@H](CO)C(=O)N1CCC[C@H]1C(=O)N[C@@H](CC(=O)O)C(=O)N[C@H](C(=O)N[C@@H](Cc1ccc(O)cc1)C(=O)O)[C@@H](C)CC` [HQNIGSSSSPDIY], the minimum inhibitory concentration (MIC) in [10] and in [11] was at least 1000 µM each time.

`CC[C@H](C)[C@H](NC(=O)CNC(=O)[C@H](CO)NC(=O)[C@H](CC(C)C)NC(=O)[C@@H](NC(=O)[C@H](CCCN=C(N)N)NC(=O)CNC(=O)[C@@H](NC(=O)[C@H](CC(C)C)NC(=O)[C@@H]1CCCN1C(=O)[C@H](CC(C)C)NC(=O)[C@@H](N)Cc1c[nH]c2ccccc12)[C@@H](C)CC)C(C)C)C(=O)N[C@@H](CC(C)C)C(N)=O` [WLPLIGRVLSGIL]: the MIC in [12] is 25.1 µM (≈ 36 µg/mL).

In the case of `CC[C@H](C)[C@H](NC(=O)[C@H](Cc1cnc[nH]1)NC(=O)[C@@H](NC(=O)[C@H](CC(C)C)NC(=O)[C@@H](NC(=O)[C@@H](NC(=O)[C@H](CCCN=C(N)N)NC(=O)[C@H](CC(C)C)NC(=O)[C@H](Cc1c[nH]c2ccccc12)NC(=O)[C@H](CO)NC(=O)[C@H](CCCCN)NC(=O)[C@@H](NC(=O)[C@H](CC(C)C)NC(=O)[C@H](Cc1cnc[nH]1)NC(=O)[C@@H](NC(=O)[C@@H](NC(=O)[C@@H](NC(=O)[C@H](Cc1cnc[nH]1)NC(=O)[C@H](CC(C)C)NC(=O)[C@H](CCC(N)=O)NC(=O)[C@H](CCCCN)NC(=O)[C@H](Cc1ccccc1)NC(=O)[C@H](CO)NC(=O)[C@H](CCCCN)NC(=O)CNC(=O)[C@H](CCCCN)NC(=O)[C@@H](N)CCCCN)[C@@H](C)CC)[C@@H](C)CC)C(C)C)C(C)C)[C@@H](C)O)[C@@H](C)CC)[C@@H](C)O)C(=O)O` [KKGKSFKQLHIIVHLVKSWLRTILTHI], the MIC in [13] is 19.9 µM (≈ 64.2 µg/mL); in assay [14] it was 10 µM (≈ 32.2 µg/mL); in assay [15], 10 µM (≈ 32.2 µg/mL); against Bacillus subtilis 168 HT it was 10 µM (≈ 32.2 µg/mL).

As to `CC[C@H](C)[C@H](NC(=O)[C@H](CC(C)C)NC(=O)[C@H](Cc1cnc[nH]1)NC(=O)CNC(=O)[C@@H](NC(=O)[C@@H](NC(=O)CNC(=O)[C@@H](NC(=O)[C@@H](NC(=O)[C@H](CCCCN)NC(=O)[C@@H]1CCCN1C(=O)[C@H](CC(C)C)NC(=O)[C@H](Cc1ccccc1)NC(=O)[C@H](CO)NC(=O)[C@H](CC(C)C)NC(=O)[C@H](CC(C)C)NC(=O)CN)C(C)C)[C@@H](C)CC)C(C)C)[C@@H](C)CC)C(=O)N[C@@H](Cc1cnc[nH]1)C(=O)N1CCC[C@H]1C(=O)N1CCC[C@H]1C(=O)N[C@@H](CO)C(=O)O` [GLLSFLPKVIGVIGHLIHPPS], the MIC in assay [16] was at least 100 µM; against Streptococcus uberis, at least 50 µM; against Leuconostoc lactis, 12 µM (≈ 26.3 µg/mL); in [17], at least 100 µM.

On to `CC[C@H](C)[C@H](NC(=O)[C@H](CC(C)C)NC(=O)[C@@H](N)C(C)C)C(=O)N[C@@H](CCCN=C(N)N)C(=O)NCC(=O)N[C@@H](CC(C)C)C(=O)N[C@H](C(=O)N[C@@H](Cc1cnc[nH]1)C(=O)N[C@@H](CCSC)C(=O)N[C@@H](CC(C)C)C(=O)N[C@@H](CCCN=C(N)N)C(=O)NCC(=O)NCC(=O)O)[C@@H](C)CC` [VLIRGLIHMLRGG], for which the minimal inhibitory concentration (MIC) in assay [13] is at least 100 µM; in [14], at least 100 µM; in assay [15] it was at least 100 µM; with Bacillus subtilis 168 HT, 22.4 µM (≈ 32.1 µg/mL).

`CC[C@H](C)[C@H](NC(=O)[C@H](C)NC(=O)[C@H](Cc1ccccc1)NC(=O)[C@H](CC(C)C)NC(=O)CN)C(=O)N[C@H](C(=O)N[C@@H](CCCCN)C(=O)N[C@@H](CCCCN)C(=O)N[C@H](C(=O)N[C@@H](C)C(=O)N[C@@H](CCC(=O)O)C(=O)N[C@@H](CO)C(=O)N[C@@H](Cc1ccccc1)C(N)=O)[C@@H](C)CC)[C@@H](C)CC` [GLFAIIKKIAESF]: the minimum inhibitory concentration (MIC) turned out to be 44.5 µM (≈ 64 µg/mL) in assay [1]; 44.5 µM (≈ 64 µg/mL) in [2]; 11.1 µM (≈ 16 µg/mL) in assay [3]; 22.3 µM (≈ 32 µg/mL) in assay [4]; 5.57 µM (≈ 7.99 µg/mL) in [5].

On to `CC[C@H](C)[C@H](NC(=O)[C@H](CCCCN)NC(=O)[C@@H](NC(=O)[C@H](CCC(N)=O)NC(=O)[C@@H](N)CCCN=C(N)N)[C@@H](C)CC)C(=O)N[C@@H](Cc1c[nH]c2ccccc12)C(=O)N[C@@H](CCCN=C(N)N)C(=O)N[C@@H](CCCN=C(N)N)C(=O)N[C@@H](CCSC)C(=O)N[C@@H](CCCCN)C(=O)N[C@@H](Cc1c[nH]c2ccccc12)C(=O)N[C@@H](CCCCN)C(=O)N[C@@H](CCCCN)C(N)=O` [RQIKIWRRMKWKK], for which the minimum inhibitory concentration (MIC) in assay [6] came out at 6.73 µM (≈ 12.5 µg/mL); in [7] it was 26.9 µM (≈ 50 µg/mL); in assay [8], 13.5 µM (≈ 25 µg/mL); in the assay on Yersinia enterocolitica, 3.37 µM (≈ 6.25 µg/mL); in the assay with Escherichia coli it was 3.01 µM (≈ 5.59 µg/mL); in the assay with Salmonella sp., 2.69 µM (≈ 5 µg/mL). The minimum inhibitory concentration (MIC) in assay [5] is 3.37 µM (≈ 6.25 µg/mL).
